Laboratory results taken from patent publication US11584754B2, “Derivatives of thailanstatin A, methods of treatment and methods of synthesis thereof” (WILLIAM MARSH RICE UNIVERSITY, priority 2016, dated 2023).
Where two headings read alike, the source gives them in different places. Non-standard residues stand in square brackets, D forms with d. Residues, ends and D or L forms follow the SMILES beside them. *: point of attachment. Dolaproine = CO[C@@H]([C@@H]1CCCN1)[C@@H](C)C(=O)O; Dil = CC[C@H](C)[C@H](NC)[C@@H](CC(=O)O)OC; X1 = C[C@@H](N*)[C@@H](O)c1ccccc1; NMeV = CN[C@H](C(=O)O)C(C)C

Columns and labels:
Format in all cases: cell-based, human
MES SA = experiment: Cytotoxicity assay (72 hour killing assay, CellTiter-Glo), MES SA; conditions: read-out: Cancer cell lines IC50 (nM) MES SA
Method: (§1) Cells were cultured in a T75 flask to ˜50-80% confluency and harvested with trypsin into a single cell suspension. Five hundred (500) cells per well were seeded in tissue culture plates in 50 μL/well culture media and incubated at 37° C. for 18-24 h. Compounds were diluted as 400× final desired concentrations in DMSO. Serial dilutions in DMSO were then diluted in culture media for a final DMSO concentration of 0.25% and 50 μL/well of the final dilution was added to the cells (Vf=100 μL). Upon plating and treatment, cells were returned to the incubator for an additional 72 hours. CellTiter-Glo reagent was prepared per manufacturer's instructions and added at 100 μL/well to the cultures. CellTiter-Glo allows for relative enumeration of metabolically active cells by quantifying intracellular ATP concentrations. After 5 minutes of incubation with CellTiter-Glo at ambient room temperature, 125 μL/well of the Cell Titer glo/cell lysate solution was transferred into black assay plates, which were then read in a luminometer within 30 minutes.
(§2) MES SA and MES SA/Dx cells are uterine sarcoma. MES SA Dx cell line was generated from MES SA to achieve upregulation of MDR1.

HEK 293T = experiment: Cytotoxicity assay (72 hour killing assay, CellTiter-Glo), HEK 293T; conditions: read-out: Cancer cell lines IC50 (nM) HEK 293T
Method: as §1
293T cells are human embryonic kidney cell line.

MES SA DX = experiment: Cytotoxicity assay (72 hour killing assay, CellTiter-Glo), MES SA DX; conditions: read-out: Cancer cell lines IC50 (nM) MES SA DX
Method: as §1, §2

Row | SMILES | IC50 (MES SA; Homo sapiens, MES-SA, 72 h) | IC50 (HEK 293T; Homo sapiens, HEK-293T, 72 h) | IC50 (MES SA DX; Homo sapiens, MES-SA, 72 h) | IC50 (MES SA; MES-SA, 50% inhibitory concentration against cell growth, human uterine sarcoma cell line, 72 hours) | IC50 (MES SA DX; Homo sapiens, 50% inhibitory concentration against cell growth, MES SA cell line with marked multidrug resistance, 72 hours) | IC50 (MES SA; 50% inhibitory concentration against cell growth, human uterine sarcoma cell line, 72 hours) | IC50 (HEK 293T; 50% inhibitory concentration against cell growth, human embryonic kidney cancer cell line, 72 hours) | IC50 (MES SA DX; 50% inhibitory concentration against cell growth, MES SA cell line with marked multidrug resistance, 72 hours)
1 | COC(=O)C[C@@H]1C[C@@]2(CO2)[C@H](O)[C@@H](/C=C/C(C)=C/C[C@@H]2O[C@H](C)[C@H](NC(=O)/C=C\[C@H](C)OC(C)=O)C=C2C)O1 [Compound 32] | > 1000 nM | > 1000 nM | > 1000 nM |  |  |  |  | 
2 | COC(=O)C[C@@H]1C[C@@]2(CO2)[C@H](O)[C@@H](/C=C/C(C)=C/C[C@@H]2O[C@H](C)[C@H](NC(=O)/C=C\[C@H](C)OC(=O)N3CCOCC3)C[C@H]2C)O1 [Compound 40] | > 2500 nM | > 400 nM | > 2500 nM |  |  |  |  | 
3 | COC(=O)C[C@@H]1CC2(CC2)[C@H](O)[C@@H](/C=C/C(C)=C/C[C@@H]2O[C@H](C)[C@H](NC(=O)/C=C\[C@H](C)OC(C)=O)C[C@@H]2C)O1 [Compound 43, Methyl [(5S,7R,8S)-7-{(1E,3E)-5-[(2S,3S,5R,6R)-5-{[(2Z,4S)-4-acetoxypent-2-enoyl]amino}-3,6-di-methyltetrahydro-2H-pyran-2-yl]-3-methylpenta-1,3-dien-1-yl}-8-hydroxy-6-oxaspiro[2.5]oct-5-yl]-acetate] | > 2500 nM | 88.3 nM | > 2500 nM |  |  |  |  | 
4 | CCOC(=O)CCNC(=O)C[C@@H]1C[C@@]2(CO2)[C@H](O)[C@@H](/C=C/C(C)=C/C[C@@H]2O[C@H](C)[C@H](NC(=O)/C=C\[C@H](C)OC(C)=O)C[C@H]2C)O1 [Compound 33, Ethyl 3-({[(3R,5S,7R,8R)-7-{(1E,3E)-5-[(2S,3R,5R,6R)-5-{[(2Z,4S)-4-acetoxypent-2-enoyl]amino}-3,6-dimethyltetrahydro-2H-pyran-2-yl]-3-methylpenta-1,3-dien-1-yl}-8-hydroxy-1,6-dioxaspiro[2.5]oct-5-yl]acetyl}amino)propanoate] | 512 nM | 1480 nM | > 2500 nM |  |  |  |  | 
5 | COC(=O)C[C@@H]1C[C@@]2(CO2)[C@H](OC(C)=O)[C@@H](/C=C/C(C)=C/C[C@@H]2O[C@H](C)[C@H](NC(=O)/C=C\[C@H](C)OC(C)=O)C[C@@H]2C)O1 [Compound 45, Methyl [(3R,5S,7R,8R)-8-acetoxy-7-{(1E,3E)-5-[(2S,3S,5R,6R)-5-{[(2Z,4S)-4-acetoxypent-2-enoyl]-amino}-3,6-dimethyltetrahydro-2H-pyran-2-yl]-3-methylpenta-1,3-dien-1-yl}-1,6-dioxaspiro[2.5]-oct-5-yl]acetate] | 6.82 nM | 0.58 nM | 6.73 nM |  |  |  |  | 
6 | CC(=O)O[C@H]1C(=O)[C@@]2(C)[C@H]([C@H](OC(=O)c3ccccc3)[C@]3(O)C[C@H](OC(=O)[C@H](O)[C@@H](NC(=O)c4ccccc4)c4ccccc4)C(C)=C1C3(C)C)[C@]1(OC(C)=O)CO[C@@H]1C[C@@H]2O [paclitaxel, reference compound] |  |  |  | 2.47 nM | > 400 nM |  |  | 
7 | COC(=O)C[C@@H]1C[C@@]2(CO2)[C@H](O)[C@@H](/C=C/C(C)=C/C[C@@H]2O[C@H](C)[C@H](NC(=O)/C=C\[C@H](C)OC(=O)N3CCCCC3)C[C@@H]2C)O1 [Compound 42] | 3.68 nM | 0.24 nM | 3.45 nM |  |  |  |  | 
8 | COC(=O)C[C@@H]1C[C@@]2(CO2)[C@H](O)[C@@H](/C=C/C(C)=C/C[C@@H]2O[C@H](C)[C@H](NC(=O)/C=C\[C@H](C)OC(=O)N(C)C)C[C@@H]2C)O1 [Compound 36, Methyl [(3R,5S,7R,8R)-7-{(1E,3E)-5-[(2S,3S,5R,6R)-5-({(2Z,4S)-4-[(dimethylcarbamoyl)oxy]pent-2-enoyl}amino)-3,6-dimethyltetrahydro-2H-pyran-2-yl]-3-methylpenta-1,3-dien-1-yl}-8-hydroxy-1,6-dioxaspiro[2.5]oct-5-yl]acetate] | 0.92 nM | 0.08 nM | 1.09 nM |  |  |  |  | 
9 | COC(=O)C[C@@H]1C[C@@]2(CO2)[C@H](O)[C@@H](/C=C/C(C)=C\C[C@@H]2O[C@H](C)[C@H](NC(=O)/C=C\[C@H](C)OC(C)=O)C=C2C)O1 [Compound 46] | > 1000 nM | > 1000 nM | > 1000 nM |  |  |  |  | 
10 | COC(=O)C[C@@H]1C[C@@]2(CO2)[C@H](O)[C@@H](/C=C/C(C)=C\C[C@@H]2O[C@H](C)[C@H](NC(=O)/C=C\[C@H](C)OC(C)=O)C[C@H]2C)O1 [Compound 47, Methyl [(3R,5S,7R,8R)-7-{(1E,3Z)-5-[(2S,3R,5R,6R)-5-{[(2Z,4S)-4-acetoxypent-2-enoyl]amino}-3,6-dimethyltetrahydro-2H-pyran-2-yl]-3-methylpenta-1,3-dien-1-yl}-8-hydroxy-1,6-dioxaspiro[2.5]-oct-5-yl]acetate] | > 1000 nM | > 1000 nM | > 1000 nM |  |  |  |  | 
11 | CC[C@H](C)[C@@H]([C@@H](CC(=O)N1CCC[C@H]1[C@H](OC)[C@@H](C)C(=O)N[C@H](C)[C@@H](O)c1ccccc1)OC)N(C)C(=O)[C@@H](NC(=O)[C@@H](NC)C(C)C)C(C)C [MMAE, reference compound] (H-[NMeV]V[Dil][Dolaproine]-X1) |  |  |  |  |  | 0.096 nM | 0.068 nM | 88.2 nM
12 | COC(=O)C[C@@H]1C[C@@]2(CO2)[C@H](O)[C@@H](/C=C/C(C)=C/C[C@@H]2O[C@H](C)[C@H](NC(=O)/C=C\[C@H](C)OC(C)=O)C[C@H]2C)O1 [Compound 34, Methyl [(3R,5S,7R,8R)-7-{(1E,3E)-5-[(2S,3R,5R,6R)-5-{[(2Z,4S)-4-acetoxypent-2-enoyl]amino}-3,6-dimethyltetrahydro-2H-pyran-2-yl]-3-methylpenta-1,3-dien-1-yl}-8-hydroxy-1,6-dioxaspiro[2.5]-oct-5-yl]acetate] | 649 nM | > 1000 nM | > 1000 nM |  |  |  |  | 
13 | CC(=O)O[C@@H](C)/C=C\C(=O)N[C@@H]1C[C@H](C)[C@H](C/C=C(C)/C=C/[C@H]2O[C@H](CC(=O)O)C[C@@]3(CO3)[C@@H]2O)O[C@@H]1C [Compound 1, Thailanstatin A] | 419 nM | 296 nM | > 400 nM |  |  |  |  | 
14 | CC(=O)O[C@@H](C)/C=C\C(=O)N[C@@H]1C[C@H](C)[C@H](C/C=C(C)/C=C/[C@H]2O[C@H](CC(=O)NC3CC3)C[C@@]3(CO3)[C@@H]2O)O[C@@H]1C [Compound 31, (2S,3Z)-5-({(2R,3R,5S,6S)-6-[(2E,4E)-5-{(3R,4R,5R,7S)-7-[2-(Cyclopropylamino)-2-oxoethyl]-4-hydroxy-1,6-dioxaspiro[2.5]oct-5-yl}-3-methylpenta-2,4-dien-1-yl]-2,5-dimethyltetrahydro-2H-pyran-3-yl}amino)-5-oxopent-3-en-2-yl acetate] | 1.04 nM | 0.739 nM | 105 nM |  |  |  |  | 
15 | CCOC(=O)CCNC(=O)C[C@@H]1C[C@@]2(CO2)[C@H](O)[C@@H](/C=C/C(C)=C/C[C@@H]2O[C@H](C)[C@H](NC(=O)/C=C\[C@H](C)OC(C)=O)C[C@@H]2C)O1 [Compound 35, Ethyl 3-({[(3R,5S,7R,8R)-7-{(1E,3E)-5-[(2S,3S,5R,6R)-5-{[(2Z,4S)-4-acetoxypent-2-enoyl]amino}-3,6-dimethyltetrahydro-2H-pyran-2-yl]-3-methylpenta-1,3-dien-1-yl}-8-hydroxy-1,6-dioxaspiro-[2.5]oct-5-yl]acetyl}amino)propanoatee] | 6.9 nM | 2.2 nM | 261 nM |  |  |  |  | 
16 | COC(=O)C[C@@H]1C[C@@]2(CO2)[C@H](O)[C@@H](/C=C/C(C)=C/C[C@@H]2O[C@H](C)[C@H](NC(=O)/C=C\[C@H](C)OC(=O)N3CCOCC3)C[C@@H]2C)O1 [Compound 44] | 2.66 nM | 0.15 nM | 3.71 nM |  |  |  |  | 
17 | COC(=O)C[C@@H]1C[C@@]2(CO2)[C@H](O)[C@@H](/C=C/C(C)=C/C[C@@H]2O[C@H](C)[C@H](NC(=O)/C=C\[C@H](C)OC(=O)N3CCCCC3)C[C@H]2C)O1 [Compound 38, (2S,3Z)-5-{[(2R,3R,5R,6S)-6-{(2E,4E)-5-[(3R,4R,5R,7S)-4-Hydroxy-7-(2-methoxy-2-oxoethyl)-1,6-dioxaspiro[2.5]oct-5-yl]-3-methylpenta-2,4-dien-1-yl}-2,5-dimethyltetrahydro-2H-pyran-3-yl]-amino}-5-oxopent-3-en-2-yl piperidine-1-carboxylate] | > 2500 nM | > 400 nM | > 2500 nM |  |  |  |  | 
18 | COC(=O)C[C@@H]1C[C@@]2(CO2)[C@H](O)[C@@H](/C=C/C(C)=C/C[C@@H]2O[C@H](C)[C@H](NC(=O)/C=C\[C@H](C)OC(C)=O)C[C@@H]2C)O1 [Compound 2, Thailanstatin A methyl ester] | 0.32 nM | 0.36 nM | 3.6 nM |  |  |  |  | 
19 | COC(=O)C[C@@H]1C[C@@]2(CO2)[C@H](O)[C@@H](/C=C/C(C)=C/C[C@H]2O[C@H](C)[C@H](NC(=O)/C=C\[C@H](C)OC(C)=O)C=C2C)O1 [Compound 30] | > 1000 nM | > 1000 nM | > 1000 nM |  |  |  |  | 
